Reference: PubChem BioAssay (NCI)
Values joined by “and” are separate entries in the source; they are usually repeats but may differ in a detail not shown here. Identical values can stand only once.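 Interpolation was linear, between the two tested concentrations surrounding the appropriate level; five concentrations were tested over 48 hours in 96-well plates. The concentration for 50% growth inhibition is given as GI50. TGI denotes the concentration required for complete inhibition of growth.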

Tests used:
Experiment in all cases: NCI-60 cell line screen, 48 h
CAKI-1 renal = system: CAKI-1 renal
EKVX NSCLC = system: EKVX NSCLC
HCT-116 colon = system: HCT-116 colon
HCT-15 colon = system: HCT-15 colon
LOX IMVI melanoma = system: LOX IMVI melanoma
NCI-H522 lung = system: NCI-H522 lung
PC-3 prostate = system: PC-3 prostate
SNB-19 CNS = system: SNB-19 CNS
UACC-62 melanoma = system: UACC-62 melanoma
UO-31 renal = system: UO-31 renal

| SMILES | GI50 (CAKI-1 renal) | TGI (CAKI-1 renal) [µM] | GI50 (EKVX NSCLC) [µM] | TGI (EKVX NSCLC) [µM] | GI50 (HCT-116 colon) | TGI (HCT-116 colon) | GI50 (HCT-15 colon) [µM] | TGI (HCT-15 colon) [µM] | GI50 (LOX IMVI melanoma) | TGI (LOX IMVI melanoma) [µM] | GI50 (NCI-H522 lung) | TGI (NCI-H522 lung) [µM] | TGI (PC-3 prostate) [µM] | GI50 (SNB-19 CNS) [µM] | TGI (SNB-19 CNS) [µM] | GI50 (UACC-62 melanoma) | TGI (UACC-62 melanoma) [µM] | GI50 (UO-31 renal) [µM] | TGI (UO-31 renal) [µM] | GI50 (PC-3 prostate) [µM] |
| --- | --- | --- | --- | --- | --- | --- | --- | --- | --- | --- | --- | --- | --- | --- | --- | --- | --- | --- | --- | --- |
| COc1ccc(N=C2NN=C(c3c[nH]c4ccccc34)CS2)cc1OC | 8.05 µM | > 79.1 | 8.77 | > 100 | 8.25 µM | > 100 µM | 4.02 | > 100 | 6.1 µM | > 100 | 7.17 µM | > 100 | > 45.8 | 10.9 | > 100 | 4.81 µM | > 100 | 5.81 | > 100 |  |
| C=C(CC1(CC(=C)c2ccc(C(=O)O)cc2)C(=O)N(C)C(=O)N(C)C1=O)c1ccc(C(=O)O)cc1 | 60.3 µM | > 100 | > 100 | > 100 | 49.6 µM | > 100 µM | > 100 | > 100 | 80.8 µM | > 100 | 31.3 µM | > 100 | > 100 | > 100 | > 100 | 42.7 µM | > 100 | 57.2 | > 100 | 63.2 |
| CCC1(N2C(=O)c3c(F)c(F)c(F)c(F)c3C2=O)C(=O)NC(=O)N(c2ccccc2)C1=O (centres undefined) | 1.95 µM | 4 | 2.77 | 8.01 | 4.1 µM | 18.2 µM | 2.32 | 7.14 | 1.18 µM | 2.73 | 3.13 µM | 26.2 | 16 | 3.93 | 16.9 | 1.41 µM | 3.1 | 17.1 | 63.7 | 2.28 |
| O=C(Cc1nc2ccc([N+](=O)[O-])cc2[nH]c1=O)C(=O)Nc1cc(Cl)c(Cl)cc1Cl |  | > 100 |  | > 100 |  | > 100 µM |  | > 100 |  | > 100 |  | > 100 | > 100 |  | > 100 |  | > 100 |  | > 100 |  |
| CN(C)c1ccc(Sc2ccc3nc(N)nc(N)c3c2)cc1 | 2.03 µM | 16.8 | 2.27 | 23.5 | 0.305 µM | 1.64 µM | 0.429 | 14.2 | 0.3 µM | 13.6 | 0.934 µM | 11.7 | 15.6 | 1.2 | 17.7 | 0.519 µM | 5.78 | 1.12 | 13.6 | 0.63 |
| C[C@H](NC(=O)CCC(F)(F)F)C(=O)N[C@@H]1C(=O)N(CCO)c2ncccc2-c2ccccc21 | > 100 µM | > 100 | > 100 | > 100 | > 100 µM | > 100 µM | > 100 | > 100 | > 100 µM | > 100 | > 100 µM | > 100 | > 100 | > 100 | > 100 | > 100 µM | > 100 | > 100 | > 100 | > 100 |
| CC(=O)N[C@@H]1CCC[C@H](C(=O)Nc2cc(-c3cnn4c3CC(C)(C)C4)c(Cl)cn2)C1 | < 0.01 µM | > 100 | 0.0197 |  | < 0.01 µM | > 100 µM | 0.0225 | > 100 | < 0.01 µM | > 100 | 0.013 µM | 0.0588 | > 100 | < 0.01 | > 100 | < 0.01 µM | 0.0549 | 0.0241 |  | < 0.01 |
| COC(=O)Nc1nc2ccc(Sc3ccc(NC(=O)Nc4cc(C(F)(F)F)ccc4F)cc3)cc2[nH]1 | 3.86 µM | 18.8 | 4 | 21.8 | 1.37 µM | 4.67 µM | 1.62 | 8.19 | 1.5 µM | 6.16 | 2.05 µM | 6.27 | 11.1 | 6.98 | 25 | 1.85 µM | 8.38 | 5.9 | 19.8 | 3.38 |
| O=C(NO)C(O)C(O)C(O)C(O)CO (centres undefined) | 31.3 µM | > 100 | > 100 | > 100 | > 100 µM and 27.1 µM | > 100 µM and 73.5 µM | > 100 | > 100 | > 100 µM and 94.8 µM | > 100 | > 100 µM and 44.7 µM | > 100 | > 100 | > 100 | > 100 | 84.2 µM and 38.6 µM | > 100 | > 100 | > 100 | > 100 |
| CCOC(=O)Cc1csc(NC(=O)C(OC(=O)c2ccc(N)cc2)c2ccccc2)n1 (centres undefined) | 39.6 µM | > 100 | > 100 | > 100 | 30.8 µM | > 100 µM | 43.5 | > 100 | 41.7 µM | > 100 | 43 µM | > 100 | > 100 | 53 | > 100 | 25.9 µM | 65.6 | 54.4 | > 100 | 50.7 |
| COc1cc(C(=O)N/N=C/c2cccc([N+](=O)[O-])c2)cc(OC)c1OC | 2.53 µM | 11.9 | 18.7 | > 100 | 4.09 µM | > 100 µM | 6.78 | > 100 | 4.69 µM | > 100 | 2.45 µM | 5.74 | > 100 | 55.1 | > 100 | 6.31 µM | > 100 | 5.2 | > 100 | 2.92 |
| CCCCCCCCCCCCNC(=O)[C@H]1CSC(c2ccc(OC)c(F)c2)N1 (some centres undefined) | 1.56 µM | 2.94 | 0.678 | 2 | 0.421 µM | 1.41 µM | 1.78 | 3.39 | 0.19 µM | 0.398 | 1.82 µM | 3.64 | 1.43 | 1.95 | 3.66 | 1.45 µM | 2.83 | 1.63 | 3.01 | 0.38 |
| Cc1nc(C(N)=S)sc1C(=O)CC(=O)C(=O)Nc1cccc(Cl)c1C |  | > 100 |  | > 100 |  | > 100 µM |  | > 100 |  | > 100 |  | > 100 | > 100 |  | > 100 |  | > 100 |  | > 100 |  |
| COc1cc(C2c3cc4c(cc3[C@@H](Nc3cccc(O)c3)C3COC(=O)[C@H]23)OCO4)cc(OC)c1O (some centres undefined) | 0.242 µM and 0.69 µM | 4.59 |  | 15 | 0.804 µM | 23.3 µM |  | 46.4 | 0.535 µM | 7.3 | 0.571 µM | 5.51 | 15.4 | 0.949 | 24.9 | 0.603 µM | 7.08 | 0.779 | 7.4 |  |
